These results are taken from ChEMBL document CHEMBL1132249, “Design and synthesis of novel quinoxaline-2,3-dione AMPA/GlyN receptor antagonists: amino acid derivatives” (J Med Chem, 1999).

pIC50: −log10 of the molar value. Converted amounts (≈) assume the structure as drawn.

Data set [1] is described as follows: Solubility was measured in 50 mM phosphate buffer at pH 7.4. Format: physicochemical.
Data set [2] concerns the target Glutamate receptor ionotropic, AMPA (Rattus norvegicus, UniProt P19490+P19491+P19492+P19493). Nature of the data set: In vitro binding affinity against Ionotropic glutamate receptor AMPA binding site using [3H]- AMPA as radioligand on rat cortical synaptosomal membranes.
Data set [3] in a line: In vitro binding affinity against glycine receptor binding site using [3H]- Glycine as radioligand on rat cortical synaptosomal membranes.
For data set [4], the species on record is Mus musculus. Nature of the data set: Anticonvulsant activity in mice was determined from maximal electroshock assay. The class given is functional. On the technique in general: In the maximal electroshock model the usual endpoint is tonic extension of the hind limbs.

As for `CCc1c(Br)cc2nc(O)c(O)nc2c1CN(C)CC(=O)O`, the solubility in data set [1] was 140 µg/mL (≈ 378 µM). The same compound had a pIC50 in data set [2] of 5.63.

As to `C=Cc1c(Br)cc2nc(O)c(O)nc2c1CN(C)CC(=O)O`, in data set [1], the solubility worked out at 170 µg/mL (≈ 462 µM). Moreover, in data set [2], the pIC50 was 5.93.

In the case of `CCc1c([N+](=O)[O-])cc2nc(O)c(O)nc2c1CN(C)CC(=O)O`, the solubility in data set [1] was 420 µg/mL (≈ 1250 µM). The pIC50 is 6.33 in data set [3] and 6.85 in data set [2].

Regarding `CN1CCc2c([N+](=O)[O-])cc3nc(O)c(O)nc3c2C1`, in data set [1], the solubility is 8.6 µg/mL (≈ 31.1 µM). For the same compound, the pIC50 in data set [3] is 6.43. It took a dose of 0.44 mg/kg to reach the 50% effect level in data set [4] (ED50).

`CCOC(=O)CN(C)Cc1c(CC)c([N+](=O)[O-])cc2nc(O)c(O)nc12` registered a solubility in data set [1] of 150 µg/mL (≈ 412 µM). The pIC50 in data set [3] is < 5.00; in data set [2] it was 5.80.

On to `CCc1ccc2nc(O)c(O)nc2c1CN(C)CC(=O)O`, for which the pIC50 in data set [3] and in data set [2] was < 5.00 each time.

Usually solubility stands for the concentration that dissolves in the medium under given conditions. What is called pIC50 is the IC50 on a negative log10 scale, so that one unit is a factor of ten. Higher therefore signals a low IC50. As a reminder, the ED50 is the dose that gives a 50% effect, or the effect in half of the subjects. Higher therefore signals a need for a large dose.
